From patent publication US20090123907A1 (priority 2004, published 2009)

Columns and labels:
plasma proteins [1] = assay: Protein resistance to room temperature aging; conditions: Na citrate 0.4%, lysine citrate 2%
Source text: (§1) […]. In many cases heat treatments have been used to reduce or eliminated infectious agents from blood products. A problem with such an approach has been heat induced changes in the antigenicity of certain blood components. […]. A continuation of this experiment was set up to check also long term room temperature stability. It is generally believed that resistance to heat is an indicator of room temperature stability. That is the justification for estimating long term stability of products by using “accelerated” stability tests based on storage at an elevated temperature. In the presented experiment it is important to note that different plasma sample were used for the two different anticoagulants because a single sample was not large enough to provide sufficient volume for all of the tests over the life of the extended experiment.
It was anticipated that protection against damage due to elevated temperature would also provide greater stability at room temperature. It will be appreciated that the need to rapidly freeze plasma to ensure stability and the need to freeze or refrigerate plasma for transport greatly complicates the use of plasma under situations of war or emergency or in developing countries where refrigeration may not be readily available. […] […]. […] […]. Although great effort is taken to ensure sterility of the plasma, any blood product procured by means of venipuncture may become contaminated by skin bacteria. […] […]. Those proteins that do lose activity decrease only slightly as compared to much more dramatic decreases in sodium citrate storage.

plasma proteins [2] = assay: Protein resistance to 56° C. treatment; conditions: Na citrate 0.4%, lysine citrate 2.0%
Source text: as §1

plasma proteins [3] = assay: Protein resistance to glass beads; conditions: Na citrate 0.4%, lysine citrate 2.0%
Source text: The above experiment was repeated using glass beads as a denaturing agent. Generally, contact of blood plasma with glass surfaces results in activation or denaturation. […].

red blood cells = assay: Red blood cell integrity during storage at 4° C.; type: cell-based; design: MCV Day 20 / MCV Day 33: unit not given here; conditions: for RBC Day 1: whole blood; for MCV Day 20 / MCV Day 33: whole blood stored at 4° C.
Method: In this experiment whole blood (an aliquot of which clotted within 10 minutes without anticoagulant) was modified by adding a number of different anticoagulant compositions. Sodium citrate was used as an anticoagulant at 0.65%, 0.75% and 0.9% by weight. These are all higher citrate levels than the usual 0.4% by weight. Amino acid citrates (lysine or arginine) were used at 0.65%, 0.75% and 0.9% by weight based on the weight of the citric acid. The amino acid counterion was used in sufficient quantity to adjust the pH as explained above.
To judge red cell condition the blood was counted and various other measurements were taken initially and after 20 and 33 days of storage at 4° C. Apparent initial/differences in RBC counts are due to dilution caused by adding extra anticoagulant. Mean cell volume (MCV) is a red cell index that is a useful measure of red cell health. […] It is believed that a citrate level of at least about 1.0% by weight (i.e., more than two times the usual amount) is necessary to ensure against all activation of plasma proteins. […] On the other hand, amino acid citrates, which are very effective anticoagulants, are also effective at preventing red cell damage.

[4] = Level of calcium measured in blood with citrate anticoagulants
Source text: Lysine citrate is compared to traditional sodium citrate. The various citrate levels are expressed as a weight percentage of citrate so that equivalent levels have the same amount of citrate. The same blood was used throughout so that all of the samples started with the same calcium concentration. Since citrate is an effective chelator of calcium one expects the measured level of calcium to decrease with increasing levels of citrate as more and more of the calcium is “tied up” by the citrate. There is an equilibrium between free measurable calcium and calcium associated with citrate molecules. As the concentration of citrate is increased, calcium levels are lowered as there is a higher and higher probability that a given calcium ion will be interacting with a citrate molecule. […] There are at least two different ways of interpreting phenomenon. It is possible that when lysine molecules interact with citrate molecules, the interaction somehow prevents the chelation of calcium. This would explain the higher calcium measurements because there would effectively be a lower level of citrate present. […] That too would explain the higher measured calcium level but does little to solve the remainder of the conundrum. […] Thus, another advantage of lysine citrate is enhanced patient safety and a simpler plasmapheresis set up since it will not longer be necessary to administer protective doses of calcium.

[5] = Post 56° C. for five minutes, plasma
[6] = Post 30 min rocking with glass beads

Q: Which “Alk. Phos” value (plasma proteins [1]; 0 days at room temperature) does the source give for `NCCCC[C@H](N)C(=O)O.O=C(O)CC(O)(CC(=O)O)C(=O)O` [Lysine Citrate, lysine citrate] here?
A: 23 IU/.L

Q: And the LDH (plasma proteins [1]; 0 days at room temperature)?
A: 97 IU/L

Q: What about the SGOT (plasma proteins [1]; 0 days at room temperature) of the same molecule?
A: 10 IU/L

Q: What about the SGPT (plasma proteins [1]; 0 days at room temperature) of the same molecule?
A: 20 IU/L

Q: And the fIX (plasma proteins [1]; 0 days at room temperature)?
A: 99%

Q: And the fV (plasma proteins [1]; 0 days at room temperature)?
A: 97%

Q: And the fVIII (plasma proteins [1]; 0 days at room temperature)?
A: 102%

Q: And the fibrinogen (plasma proteins [1]; 0 days at room temperature)?
A: 198 mg/dL

Q: And the “Alk. Phos” value (plasma proteins [1]; 7 days at room temperature)?
A: 23 IU/.L

Q: And the LDH (plasma proteins [1]; 7 days at room temperature)?
A: 97 IU/L

Q: And the SGOT (plasma proteins [1]; 7 days at room temperature)?
A: 10 IU/L

Q: And the SGPT (plasma proteins [1]; 7 days at room temperature)?
A: 20 IU/L

Q: And the fIX (plasma proteins [1]; 7 days at room temperature)?
A: 100%

Q: And the fV (plasma proteins [1]; 7 days at room temperature)?
A: 95%

Q: And the fVIII (plasma proteins [1]; 7 days at room temperature)?
A: 100%

Q: What about the fibrinogen (plasma proteins [1]; 7 days at room temperature) of the same molecule?
A: 198 mg/dL

Q: And the “Alk. Phos” value (plasma proteins [1]; 14 days at room temperature)?
A: 22 IU/.L

Q: What about the LDH (plasma proteins [1]; 14 days at room temperature) of the same molecule?
A: 98 IU/L

Q: And the SGOT (plasma proteins [1]; 14 days at room temperature)?
A: 11 IU/L

Q: And the SGPT (plasma proteins [1]; 14 days at room temperature)?
A: 20 IU/L

Q: What about the fIX (plasma proteins [1]; 14 days at room temperature) of the same molecule?
A: 95%

Q: What about the fV (plasma proteins [1]; 14 days at room temperature) of the same molecule?
A: 92%

Q: What about the fVIII (plasma proteins [1]; 14 days at room temperature) of the same molecule?
A: 97%

Q: What about the fibrinogen (plasma proteins [1]; 14 days at room temperature) of the same molecule?
A: 196 mg/dL

Q: And the “Alk. Phos” value (plasma proteins [1]; 21 days at room temperature)?
A: 23 IU/.L

Q: And the LDH (plasma proteins [1]; 21 days at room temperature)?
A: 98 IU/L

Q: What about the SGOT (plasma proteins [1]; 21 days at room temperature) of the same molecule?
A: 10 IU/L

Q: What about the SGPT (plasma proteins [1]; 21 days at room temperature) of the same molecule?
A: 18 IU/L

Q: What about the fIX (plasma proteins [1]; 21 days at room temperature) of the same molecule?
A: 89%

Q: What about the fV (plasma proteins [1]; 21 days at room temperature) of the same molecule?
A: 88%

Q: And the fVIII (plasma proteins [1]; 21 days at room temperature)?
A: 96%

Q: And the fibrinogen (plasma proteins [1]; 21 days at room temperature)?
A: 196 mg/dL

Q: And the “Alk. Phos” value (plasma proteins [2]; [5])?
A: 16 IU/.L

Q: What about the LDH (plasma proteins [2]; [5]) of the same molecule?
A: 91 IU/L

Q: What about the SGOT (plasma proteins [2]; [5]) of the same molecule?
A: 7 IU/L

Q: And the SGPT (plasma proteins [2]; [5])?
A: 17 IU/L

Q: What about the fIX (plasma proteins [2]; [5]) of the same molecule?
A: 79%

Q: And the fV (plasma proteins [2]; [5])?
A: 69%

Q: And the fVIII (plasma proteins [2]; [5])?
A: 88%

Q: What about the fibrinogen (plasma proteins [2]; [5]) of the same molecule?
A: 147 mg/dL

Q: What about the “Alk. Phos” value (plasma proteins [2]; before heating, fresh plasma) of the same molecule?
A: 23 IU/.L

Q: What about the LDH (plasma proteins [2]; before heating, fresh plasma) of the same molecule?
A: 97 IU/L

Q: And the SGOT (plasma proteins [2]; before heating, fresh plasma)?
A: 10 IU/L

Q: What about the SGPT (plasma proteins [2]; before heating, fresh plasma) of the same molecule?
A: 20 IU/L

Q: And the fIX (plasma proteins [2]; before heating, fresh plasma)?
A: 99%

Q: What about the fV (plasma proteins [2]; before heating, fresh plasma) of the same molecule?
A: 97%

Q: What about the fVIII (plasma proteins [2]; before heating, fresh plasma) of the same molecule?
A: 102%

Q: And the fibrinogen (plasma proteins [2]; before heating, fresh plasma)?
A: 198 mg/dL

Q: And the “Alk. Phos” value (plasma proteins [3]; [6])?
A: 24 IU/.L

Q: And the LDH (plasma proteins [3]; [6])?
A: 96 IU/L

Q: And the SGOT (plasma proteins [3]; [6])?
A: 12 IU/L

Q: And the SGPT (plasma proteins [3]; [6])?
A: 24 IU/L

Q: And the fIX (plasma proteins [3]; [6])?
A: 84%

Q: What about the fV (plasma proteins [3]; [6]) of the same molecule?
A: 67%

Q: What about the fVIII (plasma proteins [3]; [6]) of the same molecule?
A: 62%

Q: What about the fibrinogen (plasma proteins [3]; [6]) of the same molecule?
A: 202 mg/dL

Q: And the “Alk. Phos” value (plasma proteins [3]; Pre glass beads)?
A: 25 IU/.L

Q: And the LDH (plasma proteins [3]; Pre glass beads)?
A: 99 IU/L

Q: What about the SGOT (plasma proteins [3]; Pre glass beads) of the same molecule?
A: 12 IU/L

Q: And the SGPT (plasma proteins [3]; Pre glass beads)?
A: 26 IU/L

Q: What about the fIX (plasma proteins [3]; Pre glass beads) of the same molecule?
A: 98%

Q: And the fV (plasma proteins [3]; Pre glass beads)?
A: 95%

Q: And the fVIII (plasma proteins [3]; Pre glass beads)?
A: 97%

Q: And the fibrinogen (plasma proteins [3]; Pre glass beads)?
A: 247 mg/dL

Q: What about the “RBC Day 1” value (red blood cells; anticoagulant 0.65 wgt %) of the same molecule?
A: 5.37 10^6/μl

Q: What about the “MCV Day 20” value (red blood cells; anticoagulant 0.65 wgt %) of the same molecule?
A: 93.0

Q: What about the “MCV Day 33” value (red blood cells; anticoagulant 0.65 wgt %) of the same molecule?
A: 93.8

Q: And the “RBC Day 1” value (red blood cells; anticoagulant 0.75 wgt %)?
A: 6.78 10^6/μl

Q: What about the “MCV Day 20” value (red blood cells; anticoagulant 0.75 wgt %) of the same molecule?
A: 92.7

Q: And the “MCV Day 33” value (red blood cells; anticoagulant 0.75 wgt %)?
A: 92.7

Q: What about the “RBC Day 1” value (red blood cells; anticoagulant 0.90 wgt %) of the same molecule?
A: 5.82 10^6/μl

Q: And the “MCV Day 20” value (red blood cells; anticoagulant 0.90 wgt %)?
A: 92.2

Q: What about the “MCV Day 33” value (red blood cells; anticoagulant 0.90 wgt %) of the same molecule?
A: 92.9

Q: What about the “Level of calcium measured” value ([4]; Citrate Level 0.01%) of the same molecule?
A: 9.2 mg/dL

Q: What about the “Level of calcium measured” value ([4]; Citrate Level 0.05%) of the same molecule?
A: 9.1 mg/dL

Q: What about the “Level of calcium measured” value ([4]; Citrate Level 0.1%) of the same molecule?
A: 7.1 mg/dL

Q: What about the “Level of calcium measured” value ([4]; Citrate Level 0.25%) of the same molecule?
A: 4.8 mg/dL

Q: What about the “Level of calcium measured” value ([4]; Citrate Level 0.5%) of the same molecule?
A: 1.6 mg/dL

Q: And the “Level of calcium measured” value ([4]; Citrate Level 1%)?
A: 0.4 mg/dL
